This note sets out measurements from paper PMC10860144, “Exploring the Dispersion and Electrostatic Components in Arene–Arene Interactions between Ligands and G4 DNA to Develop G4-Ligands” (Journal of Medicinal Chemistry, 2024).

Structures are written as SMILES. Where two headings read alike, the source gives them in different places. Where only a bound is given, the exact number is not on record here.

In general, IC50 refers to the concentration at which inhibition is half-maximal.

The test system of experiment [1] is THP-1 cell line. The experiment in a line: THP-1 cell viability (cytotoxicity). It counts as cell-based, human. The note with it: read-out: Cell viability IC50 (THP1). The protocol:
THP1 cell viability was measured according to a previously published procedure.[48] […]
Table S3. Cell permeability and cell viability for 5 and 27
Compound Cell-permeability Cell viability IC50 Cell viability IC50 Cell viability IC50
(X x 10-6 cm/s) (THP1) (µM) (HeLa) (µM) (IHTLCP) (µM) […]
THP1 cell viability was measured according to a previously published procedure.9

For experiment [2], the system named is G4 DNA structures in HeLa cells. The experiment in a line: BG4 immunostaining of G4 DNA structures in HeLa cells. In kind it is cell-based, human. The note with it: 24 h. The protocol:
The pSANG10-3F-BG4 construct, for expression and purification of recombinant BG4 (BG4), was a gift from Shankar Balasubramanian (Addgene plasmid # 55756). BG4 was purified as previously described.[49] BG4 immunostaining was performed as previously described.[50] Briefly, 60,000 HeLa cells were seeded on 13 mm glass coverslips the day before treatment. Cells were treated for 24 h with the compounds at the indicated concentrations. After treatment, cells were fixed in 2% paraformaldehyde and permeabilized in 0.1% Triton X-100 at room temperature. […] Cell nuclei were focused on the DAPI channel, and BG4-positive foci were counted in a semiautomatic mode using a customized Cell Profiler (Broad Institute) pipeline. […]
Figure S23. Toxicity of 5 and 27 calculated as % viability of IHTLCP cells treated for 72h at the indicated concentrations compared to non-treated cells. […] IC50 and R2 determined with Graph Pad Prism is indicated. […]
Cells were imaged with a LEICA SP8 FALCON confocal microscope equipped with a 63× oil objective (NA 1.40) using identical acquisition settings. Cell nuclei were focused on the DAPI channel, and BG4-positive foci were counted in a semiautomatic mode using a customized Cell Profiler (Broad Institute) pipeline. […]

The subject of experiment [3] is c-MYC Pu22 G4 DNA in the presence of competitor dsDNA (ds26). The experiment in a line: FRET melting competition assay with dsDNA (ds26). Conditions: 5 at 2 μM, 27 at 5 μM; 0–100 equiv ds26. It counts as binding, human. The protocol: (§1) We next challenged the compounds’ G4 selectivity with a FRET melting competition assay using 5 (2 μM) and 27 (5 μM) with c-MYC Pu22 G4 DNA and increasing amounts of dsDNA (Figure 6D and Table S1). […] In addition, we investigated if we could detect any binding of the compounds to dsDNA using MST with a fluorescently labeled dsDNA (Table S1).
The FRET occurs between two dyes (5′-FAM as donor and 3′-TAMRA as acceptor) linked at both extremities of a DNA oligonucleotide. When the oligonucleotides are folded into G4 structures, the donor and acceptor are in proximity, which results in an energy transfer from the donor to the acceptor. This process can be detected by a reduction in the fluorescence emission of the donor. Fluorescence emission of the donor is recovered when the temperature increment triggers the thermal denaturation of the G4 structure. The experiments were performed in a Bio-Rad CFX96 real-time PCR device at temperatures from 10 to 95 °C at 1.5 °C/m heating rate using a 492 nm excitation wavelength and a 516 nm detection wavelength in 96-well plates. Each condition was tested in duplicate, and analysis of the data was carried out by using Excel and Origin 8 software. […] The stabilization (ΔTm) is calculated from comparison of Tm of the fluorescently labeled oligonucleotide in the presence or absence of the ligand.

The test system of experiment [4] is dsDNA (5'Cy5-ds26). The experiment is described as follows: MST with fluorescently labeled dsDNA. It counts as binding. The protocol:
as §1
5′-Cy5 labeled G4 DNAs for this study were purchased from Eurofins Genomics. Stock solutions were prepared in water at 100 μM concentration. The sequences used are listed in Supporting Information Table S1. The G4 DNA sequences were folded in KCl buffer (10 mM phosphate, 100 mM KCl, pH 7.4) by heating at 95 °C for 5 min and then cooling to room temperature. All the experiments were performed in 10 mM phosphate pH 7.4, 100 mM KCl, and 0.05% Tween20. The labeled DNA concentration is held constant at 25 nM, and ligand concentration is varied depending on ligands Kd (16 1:3 dilutions). The samples were loaded into standard MST graded glass capillaries and initial fluorescence intensity of the capillary was measured using Monolith NT.115 (Nano Temper, Germany) with 20% LED power. The change in fluorescence with ligand’s concentrations were plotted in Excel and fitted through nonlinear equation to obtain the binding constants.

Where [5] appears, read: Homo sapiens, THP-1, THP-1 cell line.

On to `Cc1cc(C)c2nc(Nc3nc(C)cc(C)n3)nc(C)c2c1` [Compound 27, N-(4,6-Dimethylpyrimidin-2-yl)-4,6,8-trimethylquinazolin-2-amine], for which the IC50 in experiment [1] (setting [5]) was above 50000 nM; in experiment [1] (THP-1 cell line), at least 50000 nM. The “number of BG4 foci per cell nucleus” value in experiment [2] (20 μM) is recorded as “not statistically fully significant”. In addition, the “change in compound-induced thermal stability of c-MYC Pu22 G4 DNA with increasing dsDNA” value in experiment [3] is listed as “No significant change”. For the same compound, the “binding to dsDNA (MST)” value in experiment [4] was “no binding could be observed”.
On to `Cc1cc(C)c2nc(Nc3nc(C)cc(NCCCN(C)C)n3)nc(C)c2c1` [Compound 5, N4-(3-(Dimethylamino)propyl)-6-methyl-N2-(4,6,8-trimethylquinazolin-2-yl)pyrimidine-2,4-diamine], for which the IC50 was found to be 2890 nM in experiment [1] (setting [5]) and 2900 nM in experiment [1] (THP-1 cell line). For the same compound, in experiment [2] (2 μM, versus 1 μM and mock-treated cells), the “number of BG4 foci per cell nucleus” value is on record as “increased significantly”. The “change in compound-induced thermal stability of c-MYC Pu22 G4 DNA with increasing dsDNA” value in experiment [3] was “No significant change”. The “binding to dsDNA (MST)” value in experiment [4] was “no binding could be observed”.
